Experimental data published in patent publication US7704695B2, “Screening of compounds for BGT1 transporter activity” (XenoPort, Inc., priority 2005, dated 2010).

How the values were obtained:
Type in all cases: cell-based
hBGT1 [1] = target: T1, hBGT1 (Homo sapiens, UniProt P48065); experiment: hBGT1 competition uptake assay (inhibition of 3H-GABA uptake); parameters: expressed in transfected cells; host or cells: HEK-TREx cells (HEK-TREx-BGT1 inducible line), induced with tetracycline/doxycycline and butyrate; conditions: HEK-TREx-BGT1 cells induced to express BGT1; FIG. 2
T1 sequence (P48065 1-614): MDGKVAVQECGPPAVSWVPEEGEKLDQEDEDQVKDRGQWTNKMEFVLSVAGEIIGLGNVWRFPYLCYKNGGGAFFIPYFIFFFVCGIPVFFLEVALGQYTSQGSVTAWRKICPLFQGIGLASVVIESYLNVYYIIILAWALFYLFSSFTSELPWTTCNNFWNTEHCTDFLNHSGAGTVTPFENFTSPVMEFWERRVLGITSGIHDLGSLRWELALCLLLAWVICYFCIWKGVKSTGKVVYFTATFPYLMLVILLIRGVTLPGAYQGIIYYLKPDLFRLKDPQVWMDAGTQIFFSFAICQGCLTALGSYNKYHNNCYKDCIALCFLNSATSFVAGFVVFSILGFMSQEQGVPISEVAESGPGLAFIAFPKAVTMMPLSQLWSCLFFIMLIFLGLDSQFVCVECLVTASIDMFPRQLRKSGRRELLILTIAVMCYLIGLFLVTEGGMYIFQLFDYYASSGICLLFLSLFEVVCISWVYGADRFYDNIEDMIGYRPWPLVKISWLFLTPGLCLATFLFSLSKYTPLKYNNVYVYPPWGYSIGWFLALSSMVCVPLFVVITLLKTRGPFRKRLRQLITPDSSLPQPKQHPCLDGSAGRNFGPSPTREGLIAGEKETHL
Protocol: Alternatively, cells were washed manually with equivalent volumes using a multichannel pipettor.
Non-specific uptake was determined by measuring the uptake into cells not induced to express the transporter (“no tet”).

hBGT1 [2] = target: T1, hBGT1; experiment: hBGT1 direct uptake assay (LC-MS-MS); parameters: expressed in transfected cells; host or cells: HEK-TREx cells (HEK-TREx-BGT1 inducible line), induced with tetracycline/doxycycline and butyrate; conditions: HEK-TREx-hBGT1 cells induced to express hBGT1
Protocol: Four concentrations (bracketing the affinity as measured by competition assays) per compound were routinely tested. Non-specific uptake was determined by measuring the uptake into cells not induced to express the transporter (“no tet”).
Typically, four concentrations bracketing the IC50 were tested. […] The samples were robustly vortexed and centrifuged for 10 minutes at 13,200 rpm to spin down any precipitate. […] Three additional 2-fold dilutions were made in the subsequent rows (B-D or […]) in HBSS.
An internal standard of 50 μM propranolol in 50:50 ethanol:water was also prepared.
The cells were washed twice in room temperature HBSS (100 μl/well/wash) using a 96-well plate washer (Bio Tek ELX405). Alternatively, cells were washed manually with equivalent volumes using a multichannel pipettor. Immediately before the assay was begun, the final 100 μl wash solution was removed from the cells.
After the final wash, as much of the wash buffer as possible was removed by aspirating the wells with a probe that reached the bottom of the wells. (Residual salts from the wash buffer can adversely affect the LC-MS-MS by disrupting the LC method or by suppressing the MS signal.) 150 μl of a 50:50 ethanol:water solution was added to each well to lyse the cells and extract the test compound. The plate was covered and allowed to sit for 20 minutes at room temperature to ensure cell lysis. […]

hBGT1 [3] = target: T1, hBGT1; experiment: Oocyte uptake assay with BGT1 cRNA-injected Xenopus oocytes; parameters: expressed in transfected cells; host or cells: Xenopus oocytes injected with in vitro transcribed BGT1 cRNA; conditions: oocytes expressing BGT1 protein
Protocol: For expression in Xenopus oocytes, in vitro BGT1 cRNA is prepared and injected into defoliculated oocytes.
To measure directly the uptake of possible substrates, an oocyte uptake assay is performed in which uptake of compounds is measured by mass spectroscopy. […] Oocytes injected with BGT1 cRNA are incubated at 16-18° C. until maximal transporter expression is reached. Oocytes from the same batch, not injected with cRNA, can be used as a control. […] Subpools are homogenized in 150 μl of ice cold 80% MeOH/H2O and lysed manually.

Compound	Effect of unlabeled competitor on uptake of labeled GABA (hBGT1 [1])	Direct Uptake Vmax (hBGT1 [2]) [pmol/min/well]	3H-GABA uptake versus noninjected controls (hBGT1 [3])
NCCCC(=O)O [GABA, γ-aminobutyric acid]	the uptake of labeled GABA decreased as the concentration of unlabeled GABA increased	110	
NCCCC(=O)O [^3H-GABA]			higher levels of ^3H-GABA uptake than noninjected controls
